{"source": "patent US4189604A", "about": "“Bestatin” (Zaidan Hojin Biseibutsu Kagaku Kenkyu Kai, priority 1975, dated 1980)", "key": {"aminopeptidase B": {"target": "T1, aminopeptidase B (Rattus norvegicus, UniProt O09175)", "T1 construct": "aminopeptidase B solution which is prepared by Sephadex 100 chromatography as described by Hopusu et al; from tissue", "T1 sequence (O09175 1-650)": "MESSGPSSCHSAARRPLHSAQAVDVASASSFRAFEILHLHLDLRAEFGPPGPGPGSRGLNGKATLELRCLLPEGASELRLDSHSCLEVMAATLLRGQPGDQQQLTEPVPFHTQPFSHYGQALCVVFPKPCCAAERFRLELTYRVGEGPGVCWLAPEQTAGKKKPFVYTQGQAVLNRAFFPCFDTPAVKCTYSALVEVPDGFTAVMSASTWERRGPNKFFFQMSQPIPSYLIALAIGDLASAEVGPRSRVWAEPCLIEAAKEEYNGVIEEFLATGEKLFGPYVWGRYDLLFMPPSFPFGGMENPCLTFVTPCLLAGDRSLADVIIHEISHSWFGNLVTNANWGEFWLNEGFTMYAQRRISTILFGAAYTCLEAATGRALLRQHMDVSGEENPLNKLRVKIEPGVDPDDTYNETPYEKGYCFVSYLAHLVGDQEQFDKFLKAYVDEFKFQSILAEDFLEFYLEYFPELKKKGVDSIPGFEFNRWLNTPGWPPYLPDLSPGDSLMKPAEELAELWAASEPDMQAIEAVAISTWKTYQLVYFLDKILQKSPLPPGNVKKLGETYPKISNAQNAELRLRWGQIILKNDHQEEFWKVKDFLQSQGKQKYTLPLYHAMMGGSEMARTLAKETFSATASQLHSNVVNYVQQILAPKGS", "experiment": "Inhibitory activity against aminopeptidase B", "type": "biochemical", "description": "(A) Inhibitory activity against aminopeptidase B Testing method: The method described by […] in Archives of Biochemistry and Biophysics 114, 557, (1966) was modfied. To the mixture of 0.3 ml. of 1 mM arginine β-naphthylamide and 1.0 Ml. of 0.1 M Tris hydrochloride buffer (pH 7.0), 0.7 Ml. of distilled water with or without a test material is added and warmed at 37° C. for 3 minutes. The reaction is started by addition of 0.2 ml. of aminopeptidase B solution which is prepared by Sephadex 100 chromatography as described by Hopusu et al. […] Fifteen minutes at room temperature thereafter, absorbance (a) at 530 nm is measured by spectrophotometer. […] The inhibition percent is calculated as follows: (b-a)/b×100."}, "[1]": {"experiment": "Contraceptive property: antifertility of Bestatin", "type": "in vivo, ICR JCL female mice", "description": "(C) Contraceptive property:\nAntifertility of Bestatin:\nImmediately after subcutaneously administering Bestatin (10 mg./kg.) to ICR JCL female mice at the age of puberty, these mice were placed with male mice of similar line. Female mice which had copulated were killed two days after formulation of vaginal plug and the ova were collected from their uterine tubes so as to examine whether they had been fertilized or not. The fertilized ova were at 8-16 cell period."}, "[2]": {"tested_on": "plaque forming cells in the spleen", "experiment": "Effect on humoral antibody formation to Sheep Red Blood Cell (SRBC) in mice (JERNE's hemolytic plaque technique)", "type": "in vivo, Mice (dd/y female)", "conditions": "for Antibody Forming Cells Number / Antibody Forming Cells Treated Group / Non-treated Group: intraperitoneal, four days", "description": "The compound of Example 28 was also tested for its humoral antibody formation to find its efficacy as an immunizing cancer inhibitor. […] For the humoral antibody formation of Bestatin per se see J. Antibiotics, 29(8), 857-859 (August, 1976).\nThe effect of (2RS,3RS)-3-amino-2-hydroxy-4-hydroxyphenylbutanoyl-(S)-leucine on humoral antibody formation to Sheep Red Blood Cell (SRBC) in mice was studied as follows.\nMice (dd/y female) were immunized by intravenous injection of 10^8 SRBC. Intraperitoneal injection of (2RS,3RS)-3-amino-2-hydroxy-4-hydroxyphenylbutanoyl-(S)-leucine was made soon afterwards.\nFour days thereafter the number of plaque forming cells in the spleen were enumerated by JERNE's hemolytic plaque technique [Jerne, N. K.; A. A. Nordin & C. Henry: \"The Agar Plaque Technique for Recognizing Antibody-producing Cells\" in cell-bound antibodies (Wistar Institute Press, Philadelphia, 1963), pp. 109-122]."}, "[3]": {"experiment": "Organ distribution of Bleomycin B2 in the presence of Bestatin", "type": "in vivo, ICR male mice", "conditions": "1 hour, average of 3", "description": "(B) Organ distribution of Bleomycin in the presence of Bestatin:\n100 mg./kg. of Bleomycin B2 was subcutaneously administered to each of three ICR male mice (4 weeks of age) and 100 mg./kg. of Bleomycin B2 and 100 mg./kg. of Bestatin were subcutaneously administered simultaneously to each of three similar mice. These 6 mice were killed one hour after administration and the quantity of Bleomycin B2 remaining in the serum and organs was determined by a thin layer disc method employing Bacillus subtilis PCI219 as the test microorganism. The results are as listed in Table 2, wherein the numerals show average values in mcg./ml."}, "[4]": {"conditions": "BLM 100 mg/kg + BST (Bestatin) 100 mg/kg s.c. simultaneously"}}, "data": [{"compound": "CC(C)C[C@H](NC(=O)[C@@H](O)[C@H](N)Cc1ccccc1)C(=O)O", "note": "[No. 1, [(2S,3R)-3-amino-2-hydroxy-4-phenylbutanoyl]-L-leucine]", "values": [{"measurement": "ID50", "setting": "aminopeptidase B; Biological Testing table after Example 29", "value": 0.10, "unit": "µg/mL"}, {"measurement": "ID50", "setting": "aminopeptidase B; pH 7.0, 37° C., 30 minutes, Table 1", "value": 0.10, "unit": "µg/mL"}, {"measurement": "antifertility", "setting": "[1]; 10 mg./kg. s.c.", "value": "has an antifertility property"}, {"measurement": "Fertilized ovum (number)", "setting": "[1]; 10 mg./kg. s.c., Female No. 1", "value": 4}, {"measurement": "Fertilized ovum (percent)", "setting": "[1]; 10 mg./kg. s.c., Female No. 1", "value": 40, "unit": "%"}, {"measurement": "Non-fertilized ovum (number)", "setting": "[1]; 10 mg./kg. s.c., Female No. 1", "value": 6}, {"measurement": "Non-fertilized ovum (percent)", "setting": "[1]; 10 mg./kg. s.c., Female No. 1", "value": 60, "unit": "%"}, {"measurement": "Number of collected ovum", "setting": "[1]; 10 mg./kg. s.c., Female No. 1", "value": 10}, {"measurement": "Number of corpus luteum", "setting": "[1]; 10 mg./kg. s.c., Female No. 1", "value": 10}, {"measurement": "Fertilized ovum (number)", "setting": "[1]; 10 mg./kg. s.c., Female No. 2", "value": 6}, {"measurement": "Fertilized ovum (percent)", "setting": "[1]; 10 mg./kg. s.c., Female No. 2", "value": 31.6, "unit": "%"}, {"measurement": "Non-fertilized ovum (number)", "setting": "[1]; 10 mg./kg. s.c., Female No. 2", "value": 13}, {"measurement": "Non-fertilized ovum (percent)", "setting": "[1]; 10 mg./kg. s.c., Female No. 2", "value": 68.4, "unit": "%"}, {"measurement": "Number of collected ovum", "setting": "[1]; 10 mg./kg. s.c., Female No. 2", "value": 19}, {"measurement": "Number of corpus luteum", "setting": "[1]; 10 mg./kg. s.c., Female No. 2", "value": 19}, {"measurement": "Fertilized ovum (number)", "setting": "[1]; 10 mg./kg. s.c., Total N=2", "value": 10}, {"measurement": "Fertilized ovum (percent)", "setting": "[1]; 10 mg./kg. s.c., Total N=2", "value": 34.5, "unit": "%"}, {"measurement": "Non-fertilized ovum (number)", "setting": "[1]; 10 mg./kg. s.c., Total N=2", "value": 19}, {"measurement": "Non-fertilized ovum (percent)", "setting": "[1]; 10 mg./kg. s.c., Total N=2", "value": 65.5, "unit": "%"}, {"measurement": "Number of collected ovum", "setting": "[1]; 10 mg./kg. s.c., Total N=2", "value": 29}, {"measurement": "Number of corpus luteum", "setting": "[1]; 10 mg./kg. s.c., Total N=2", "value": 29}, {"measurement": "fertility of the ova collected", "setting": "[1]; copulated 4-16 hours after administration, control 70%", "value": 34.5, "unit": "%"}, {"measurement": "number of antibody forming cells compared with non-treated group", "setting": "[2]; 10 mcg., in words", "value": "nearly equal to that of non-treated group"}, {"measurement": "Antibody Forming Cells Number", "setting": "[2]; dose 1 mg.", "value": "190,000±7,100"}, {"measurement": "Antibody Forming Cells Treated Group / Non-treated Group", "setting": "[2]; dose 1 mg.", "value": 1.52}, {"measurement": "Antibody Forming Cells Number", "setting": "[2]; dose 10 mcg.", "value": "136,250±6,500"}, {"measurement": "Antibody Forming Cells Treated Group / Non-treated Group", "setting": "[2]; dose 10 mcg.", "value": 1.09}]}, {"compound": "Bleomycin B2 [BLM]", "values": [{"measurement": "Bleomycin B2 remaining in Brain", "setting": "[3]; [4]", "value": 2.4, "unit": "µg/mL"}, {"measurement": "Bleomycin B2 remaining in Kidney", "setting": "[3]; [4]", "value": 84.0, "unit": "µg/mL"}, {"measurement": "Bleomycin B2 remaining in Liver", "setting": "[3]; [4]", "value": 0, "unit": "µg/mL"}, {"measurement": "Bleomycin B2 remaining in Lung", "setting": "[3]; [4]", "value": 21.2, "unit": "µg/mL"}, {"measurement": "Bleomycin B2 remaining in Serum", "setting": "[3]; [4]", "value": 140, "unit": "µg/mL"}, {"measurement": "Bleomycin B2 remaining in Skin", "setting": "[3]; [4]", "value": 42.0, "unit": "µg/mL"}, {"measurement": "Bleomycin B2 remaining in Spleen", "setting": "[3]; [4]", "value": 5.8, "unit": "µg/mL"}, {"measurement": "Bleomycin B2 remaining in Stomach", "setting": "[3]; [4]", "value": 2.5, "unit": "µg/mL"}, {"measurement": "Bleomycin B2 remaining in Brain", "setting": "[3]; BLM 100 mg/kg s.c. alone", "value": 0, "unit": "µg/mL"}, {"measurement": "Bleomycin B2 remaining in Kidney", "setting": "[3]; BLM 100 mg/kg s.c. alone", "value": 68.0, "unit": "µg/mL"}, {"measurement": "Bleomycin B2 remaining in Liver", "setting": "[3]; BLM 100 mg/kg s.c. alone", "value": 0, "unit": "µg/mL"}, {"measurement": "Bleomycin B2 remaining in Lung", "setting": "[3]; BLM 100 mg/kg s.c. alone", "value": 11.2, "unit": "µg/mL"}, {"measurement": "Bleomycin B2 remaining in Serum", "setting": "[3]; BLM 100 mg/kg s.c. alone", "value": 110, "unit": "µg/mL"}, {"measurement": "Bleomycin B2 remaining in Skin", "setting": "[3]; BLM 100 mg/kg s.c. alone", "value": 4.5, "unit": "µg/mL"}, {"measurement": "Bleomycin B2 remaining in Spleen", "setting": "[3]; BLM 100 mg/kg s.c. alone", "value": 4.0, "unit": "µg/mL"}, {"measurement": "Bleomycin B2 remaining in Stomach", "setting": "[3]; BLM 100 mg/kg s.c. alone", "value": 1.6, "unit": "µg/mL"}]}]}
